In one experiment the test system is HaCaT cells. Nature of the experiment: DCF-DA assay (intracellular ROS after H2O2). The class given is cell-based, human. Conditions: H2O2 treatment, 24 h; for inhibition at 100 µM: Homo sapiens, 100 μΜ, read-out: DCFDA Assay, % (100 μΜ). From the text: In the setting of evaluating bioactive compounds in terms of antioxidant capacity in various cell lines, DCF-DA is the most widely used assay for the detection of intracellular H2O2 and oxidative stress. DCF-DA is cell-permeable and is hydrolyzed intracellularly to the DCFH carboxylate anion, which is retained in the cell.
DCFDA is a fluorescent dye that measures the activity of hydroxyl radicals, peroxyl radicals, and other reactive oxygen species (ROS) within the cell. The DCFDA analysis protocol is based on the diffusion of DCFDA into the cell. It is then deacetylated from cellular esterases to a non-fluorescent compound, which is later oxidized by ROS to 2’,7’ -dichlorofluoroscein (DCF). The produced compound (DCF) is fluorescent and is detected by fluorescence spectroscopy at 485/535 nm (excitation/emission).
For the experimental procedure a standard solution of DCF-DA (20mM) in DMSO was prepared which was stored in the dark (−20 °C) until use. In a 96-well plate, cells were cultured to a density of 3 × 10^4 cells/well.
The cells remained in the incubator (37 °C, 5% CO2) for 24 h, after which an appropriate amount of H2O2 (2 mM) was added and the dish was returned for incubation for the next 2 h. This was followed by the addition of the test substances (100μM) and incubation for 24 h. At the end of the treatment time, all wells were washed with PBS, and DCF-DA solution (working concentration: 10 μM) (in 200 μL of nutrient) was added and incubated for 40 min.
After incubation, the medium with the DCF-DA was removed and replaced with FBS-free DMEM. The measurement of the […] was made immediately after that in a plate reader at 495/530 nm (excitation/emission).
All samples were tested in triplicates, against a control (without effects), blank (without cells), and positive control (standard 100 μM Ascorbic acid solution was used).
The percentage of antioxidant capacity (%) was calculated according to the following Equation (6) evaluating the presence of ROS [42]:(6) % AI=( OD Sample 530 nm−Blank)−(OD Control 530 nm−Blank)/(OD Control 530 nm−Blank) × 100

The test system of the next experiment is A375 cells. In words: MTT cytotoxicity assay, A375. Conditions: Homo sapiens, A-375, 24 h, A375, 100 μΜ, read-out: Cell Toxicity A375 % (100 μΜ). In kind it is cell-based, human. As to the method: Furthermore, the coumarin compounds synthesized in this study were also evaluated for their cytotoxicity against A549 (adenocarcinomic human alveolar basal epithelial cells) and A375 (human melanoma) cell lines.
This protocol was used for the evaluation of cell viability and all the cell lines. It must be noted that this assay describes the count of cells that remain alive after the treatment. For the experimental procedure a standard solution of MTT 1mg/mL in PBS was prepared which after filtration ([…] filter (Millipore, Carrigtwohill, Ireland)) was stored in the dark (4–8 °C) until use. In a 96-well plate, HaCaT, A549 and A375 cells were seeded in a number of 30 × 10^4 cells/well for each evaluation series respectively. The cells were incubated (37 °C, 5% CO2) for 24 h, followed by the addition of the tested analogues (100 μM, diluted in DMEM) and another 24-h incubation. Next, appropriate amount of MTT was added in the tested wells and the plate returned to the incubator for the next 4 h for the formation of the formazan crystals. The formazan crystals were then redissolved by adding DMSO (100 μL) and stirring lightly for 40 min, after which the absorbance was measured in a plate reader at 540 nm with a reference absorbance of 720 nm.
All samples were tested in triplicate, against a control (only cells), blank (no cells), and positive control (100 μM standard silibinin solution was used as a “cell-killing” standard).

In another experiment the target is T1, soybean LOX (Glycine max, UniProt P08170).
T1 construct: purchased Sigma-Aldrich and Fluka
T1 sequence (P08170 1-839): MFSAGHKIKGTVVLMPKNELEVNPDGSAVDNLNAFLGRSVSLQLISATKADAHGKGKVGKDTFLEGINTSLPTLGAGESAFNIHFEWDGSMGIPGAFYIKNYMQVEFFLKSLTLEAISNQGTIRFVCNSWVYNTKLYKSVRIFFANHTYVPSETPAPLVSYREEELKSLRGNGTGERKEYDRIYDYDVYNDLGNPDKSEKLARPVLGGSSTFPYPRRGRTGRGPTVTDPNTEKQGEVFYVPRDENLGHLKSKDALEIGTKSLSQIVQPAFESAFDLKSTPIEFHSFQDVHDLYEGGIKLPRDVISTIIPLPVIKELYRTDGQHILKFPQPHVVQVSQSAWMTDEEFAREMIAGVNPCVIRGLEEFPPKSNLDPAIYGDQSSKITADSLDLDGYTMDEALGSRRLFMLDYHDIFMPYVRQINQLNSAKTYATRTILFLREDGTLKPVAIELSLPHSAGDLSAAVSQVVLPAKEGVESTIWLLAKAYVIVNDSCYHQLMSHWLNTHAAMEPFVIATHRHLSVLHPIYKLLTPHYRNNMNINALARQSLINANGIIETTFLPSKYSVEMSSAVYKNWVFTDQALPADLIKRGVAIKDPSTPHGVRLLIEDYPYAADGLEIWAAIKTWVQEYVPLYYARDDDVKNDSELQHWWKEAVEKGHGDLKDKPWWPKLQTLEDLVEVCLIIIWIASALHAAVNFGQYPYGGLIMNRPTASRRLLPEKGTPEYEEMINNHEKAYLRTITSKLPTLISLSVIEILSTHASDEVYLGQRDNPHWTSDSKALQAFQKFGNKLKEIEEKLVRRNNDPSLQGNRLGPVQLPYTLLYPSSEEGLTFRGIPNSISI
Nature of the experiment: Inhibition of soybean LOX. The class given is biochemical. Conditions: for inhibition at 100 µM: read-out: Soybean LOX % inhibition (100 μΜ). How it is done: Soybean LOX is a plant enzyme which has been used widely as a prototype for studying the functional and structural properties of the homologous family of lipoxygenases, presenting satisfactory homology with the human 5-LOX [14]. Linoleic acid (LA) is a standard substrate for plant LOXs. In this protocol, all new molecules were tested as inhibitors of soybean LOX as an indication of their anti-inflammatory activity (Table 3).
For the reference sample in a UV cuvette 10 μL of the test sample (100 μM diluted in DMSO), 200 μL LOX solution (diluted in NaCl 0.9%), 100 μL LA (diluted in Tris buffer) and Tris buffer solution (pH 9) were added to a final volume of 1 mL. Respectively for the measurement sample, also in a UV cuvette 10 μL of test sample, 200 μL LOX solution, and Tris buffer solution (pH 9) were added to a final volume of 1mL. Standard and blank samples were prepared in the same way using DMSO (solvent) instead of the tested coumarin analogues.

The structures appear in SMILES notation.

`CC(=O)Oc1ccc(-c2c(C)c3cc(Br)ccc3oc2=O)cc1OC(C)=O` [Compound 3m, 3-(4,5-diacetyloxyphenyl)-6-bromo-4-methyl-chromen-2-one]: the “DCFDA Assay, % (100 μΜ)” value in the experiment on HaCaT cells is “no”. Besides, in the experiment with A375 cells, the cytotoxicity at 100 µM turned out to be 33.3%. Moreover, at soybean LOX, the inhibition at 100 µM amounted to 48%.

For the compound `Cc1c(-c2ccc(O)cc2)c(=O)oc2ccc(Cl)cc12` [Compound 4j, 6-chloro-3-(4-hydroxyphenyl)-4-methyl-chromen-2-one], the inhibition at 100 µM worked out at 2.1% in the experiment with HaCaT cells and 35% on soybean LOX. In addition, the cytotoxicity at 100 µM in the experiment with A375 cells amounted to 11.9%.

Turning to `CC(=O)Oc1ccc(-c2c(C)c3cc(Cl)ccc3oc2=O)cc1` [Compound 3j, 3-(4-acetyloxyphenyl)-6-chloro-4-methyl-chromen-2-one], the inhibition at 100 µM in the experiment with HaCaT cells worked out at 9%. Also, the cytotoxicity at 100 µM in the experiment on A375 cells lay within 50 to 60%. On soybean LOX, this compound came in with an IC50 of 49.5 µM.

`Cc1c(-c2ccc(O)cc2)c(=O)oc2ccc(Br)cc12` [Compound 4i, 6-bromo-3-(4-hydroxyphenyl)-4-methyl-chromen-2-one]: the inhibition at 100 µM in the experiment on HaCaT cells turned out to be 100%; on soybean LOX, 19.3%. Also, the cytotoxicity at 100 µM with A375 cells worked out at 6.48%.

On to `CC(=O)Oc1ccc(-c2c(C)c3cc(Br)ccc3oc2=O)cc1` [Compound 3i, 3-(4-acetyloxyphenyl)-6-bromo-4-methyl-chromen-2-one], for which the inhibition at 100 µM in the experiment with HaCaT cells was found to be 80.9%; at soybean LOX, 46.5%. Further, the cytotoxicity at 100 µM with A375 cells was 50 to 60%.

Regarding `CC(=O)Oc1cccc2oc(=O)c(-c3ccc(F)cc3)c(C)c12` [Compound 3f, 5-acetyloxy-3-(4-fluorophenyl)-4-methyl-chromen-2-one], the inhibition at 100 µM with HaCaT cells was 100%. For the same compound, the cytotoxicity at 100 µM in the experiment with A375 cells was 35.8%. At soybean LOX, the “Soybean LOX % inhibition (100 μΜ)” value was “inactive” and the inhibition at 100 µM is 20.1%.

Consider `Cc1c(-c2ccc(F)cc2)c(=O)oc2cccc(O)c12` [Compound 4f, 3-(4-fluorophenyl)-5-hydroxy-4-methyl-chromen-2-one], for which the “DCFDA Assay, % (100 μΜ)” value in the experiment on HaCaT cells is given as “no”. For the same compound, the cytotoxicity at 100 µM in the experiment on A375 cells is 45.4%. At soybean LOX, the inhibition at 100 µM was found to be 39.2%.

With `Cc1c(-c2ccccc2Cl)c(=O)oc2cccc(O)c12` [Compound 4a, 3-(2-chlorophenyl)-5-hydroxy-4-methyl-chromen-2-one], the inhibition at 100 µM in the experiment with HaCaT cells was 0%. Besides, in the experiment on A375 cells, the cytotoxicity at 100 µM was determined as 33.1%. For the same compound, it took 10 µM to reach half-maximal inhibition at soybean LOX (IC50).

Take `CC(=O)Oc1ccc(-c2c(C)c3ccccc3oc2=O)cc1OC(C)=O` [Compound 3l, 3-(4,5-diacetyloxyphenyl)-4-methyl-chromen-2-one]: the “DCFDA Assay, % (100 μΜ)” value in the experiment with HaCaT cells is “no”. Further, the cytotoxicity at 100 µM in the experiment with A375 cells stood at 40.4%. Also, on soybean LOX, the inhibition at 100 µM came to 31.4%.

As to `CC(=O)Oc1ccc(-c2c(C)c3cc(Cl)ccc3oc2=O)cc1OC(C)=O` [Compound 3n, 3-(4,5-diacetyloxyphenyl)-6-chloro-4-methyl-chromen-2-one], in the experiment on HaCaT cells, the “DCFDA Assay, % (100 μΜ)” value was “no”. Moreover, the cytotoxicity at 100 µM with A375 cells was 11.5%. In addition, at soybean LOX, the IC50 stood at 56.5 µM.

`CC(=O)Oc1ccc(-c2c(C)c3cc(Br)cc(Br)c3oc2=O)cc1OC(C)=O` [Compound 3o, 3-(4,5-diacetyloxyphenyl)-6,8-dibromo-4-methyl-chromen-2-one]: the inhibition at 100 µM in the experiment on HaCaT cells was 25.7%. Further, the cytotoxicity at 100 µM in the experiment with A375 cells came out at 45.6%. Also, the “Soybean LOX % inhibition (100 μΜ)” value on soybean LOX was “no”.

Turning to `CC(=O)Oc1cccc2oc(=O)c(-c3ccccc3F)c(C)c12` [Compound 3d, 5-acetyloxy-3-(2-fluorophenyl)-4-methyl-chromen-2-one], in the experiment on HaCaT cells, the inhibition at 100 µM came out at 22.4%. Moreover, the cytotoxicity at 100 µM with A375 cells stood at 28.5%. In addition, at soybean LOX, the “Soybean LOX % inhibition (100 μΜ)” value is “inactive” and the inhibition at 100 µM was found to be 11.6%.

For the compound `CC(=O)Oc1cccc2oc(=O)c(-c3cccc(Cl)c3)c(C)c12` [Compound 3b, 5-acetyloxy-3-(3-chlorophenyl)-4-methyl-chromen-2-one], in the experiment on HaCaT cells, the inhibition at 100 µM came out at 56.9%. Moreover, in the experiment on A375 cells, the cytotoxicity at 100 µM was greater than 60%. Also, at soybean LOX, the IC50 amounted to 31.6 µM.

Take `CC(=O)Oc1cccc2oc(=O)c(-c3ccccc3Cl)c(C)c12` [Compound 3a, 5-acetyloxy-3-(2-chlorophenyl)-4-methyl-chromen-2-one]: in the experiment on HaCaT cells, the inhibition at 100 µM worked out at 33.8%. Also, the cytotoxicity at 100 µM in the experiment on A375 cells is 38.7%. On soybean LOX, the “Soybean LOX % inhibition (100 μΜ)” value was “inactive” and the inhibition at 100 µM stood at 17%.

`CC(=O)Oc1cccc2oc(=O)c(-c3ccc(Cl)cc3)c(C)c12` [Compound 3c, 5-acetyloxy-3-(4-chlorophenyl)-4-methyl-chromen-2-one]: in the experiment with HaCaT cells, the “DCFDA Assay, % (100 μΜ)” value is given as “no”. In the experiment on A375 cells, the cytotoxicity at 100 µM is 24.8%. In addition, at soybean LOX, the “Soybean LOX % inhibition (100 μΜ)” value is reported as “no”.

Turning to `CC(=O)Oc1ccc(-c2c(C)c3cc(Br)cc(Br)c3oc2=O)cc1` [Compound 3k, 3-(4-acetyloxyphenyl)-6,8-dibromo-4-methyl-chromen-2-one], the “DCFDA Assay, % (100 μΜ)” value in the experiment with HaCaT cells is given as “no”. In addition, the cytotoxicity at 100 µM in the experiment on A375 cells came out at 28.8%. At soybean LOX, this compound gave an IC50 of 8.7 µM.

In the case of `Cc1c(-c2cccc(F)c2)c(=O)oc2cccc(O)c12` [Compound 4e, 3-(3-fluorophenyl)-5-hydroxy-4-methyl-chromen-2-one], the “DCFDA Assay, % (100 μΜ)” value in the experiment with HaCaT cells is reported as “no”. Also, the cytotoxicity at 100 µM in the experiment with A375 cells was determined as 43.1%. This compound yielded an IC50 at soybean LOX of 4.1 µM.

For `Cc1c(-c2ccc(Cl)cc2)c(=O)oc2cccc(O)c12` [Compound 4c, 3-(4-chlorophenyl)-5-hydroxy-4-methyl-chromen-2-one], the “DCFDA Assay, % (100 μΜ)” value in the experiment with HaCaT cells is given as “no”. The cytotoxicity at 100 µM in the experiment with A375 cells was 22.2%. On soybean LOX, the inhibition at 100 µM worked out at 0.9%.

Source of the values: article PMC8512853, “Synthesis, Bioactivity, Pharmacokinetic and Biomimetic Properties of Multi-Substituted Coumarin Derivatives” (Molecules, 2021).
